# Entries after “also recorded” stand apart in the source; their conditions may differ.
# How the values were obtained:
# [1] = tested on: CD1 male mice; assay: Oral glucose tolerance test (mouse model of hyperglycemia / type II diabetes); type: in vivo; settings: for Effect on blood glucose levels (in words): mouse model of hyperglycemia, high glucose load
# Text: Type II diabetes is characterized by high blood glucose levels in the presence of normal amounts of insulin. Animal models of type II diabetes involve administering high levels of glucose and measuring blood glucose levels and the ability of the experimental animal to maintain glucose homeostasis over time. Several pharmacological structural classes can effectively regulate this hyperglycemic response including sulfonylureas, thiazoladinediones (PPARγ agonists; glitazones) or metformin (glucophage). These drug classes are also clinically approved for use in humans. In one present study, a mouse model of hyperglycemia has been established by administering high levels of glucose to mice.
# CD1 male mice (Harlan, Indianapolis, Ind.) of between 8 and 10 weeks of age were fasted 18 hours prior to the start of the study. All blood glucose levels were measured using an Accu-Check Aviva glucose monitors with Aviva glucose test strips from a blood drop derived from the mouse tail. Prior to any treatment, baseline levels of blood glucose were measured in fasted mice. Thirty minutes after baseline measurement, Compound 101 or vehicle was administered via intravenous administration. Thirty minutes after compound administration, animals were administered an oral solution (via gavage) of glucose in distilled water. The dose of glucose was 1.5 g/Kg of body weight. Blood glucose levels were measured 15, 30, 60, 90 and 120 minutes after glucose challenge. There were 6 mice per treatment group.
# Blood glucose levels were taken from treated and untreated groups at the times above and measured for concentration of glucose in milligram per deciliter of blood of sample. Average values were calculated for each time point from each group and summarized after performing statistical analysis in Table III below:
# After plotting the concentration of blood glucose level over time of treated verses non-treated groups, the area under each curve was calculated to determine the glucose exposure of the treated groups of mice over time. A Student's t test with a p value of <0.001 was performed to generate a standard deviation for the average calculated glucose exposure of the group treated with Compound 101 as compared to the group treated with vehicle alone.
# [2] = tested on: CD1 male mice; assay: as above; type: in vivo; settings: area under blood glucose vs time curve; 7 mg/kg intravenous; oral glucose 1.5 g/Kg; p < 0.01 vs vehicle
SMILES,Effect on blood glucose levels (in words) [1],"Blood glucose levels, AVG ± SEM ([1]; 0 min, baseline in fasted mice before treatment, Compound 101 group (7 mg/kg intravenous given at 30 min))","Blood glucose levels, AVG ± SEM ([1]; 75 minutes (15 min after oral glucose 1.5 g/Kg), 7 mg/kg intravenous, 30 min before glucose)","Blood glucose levels, AVG ± SEM ([1]; 90 minutes (30 min after oral glucose 1.5 g/Kg), 7 mg/kg intravenous, 30 min before glucose)","Blood glucose levels, AVG ± SEM ([1]; 120 minutes (60 min after oral glucose 1.5 g/Kg), 7 mg/kg intravenous, 30 min before glucose)","Blood glucose levels, AVG ± SEM ([1]; 150 minutes (90 min after oral glucose 1.5 g/Kg), 7 mg/kg intravenous, 30 min before glucose)","Blood glucose levels, AVG ± SEM ([1]; 180 minutes (120 min after oral glucose 1.5 g/Kg), 7 mg/kg intravenous, 30 min before glucose)","Glucose Exposure (Area Under the Curve; AUC), blood glucose levels AUC [2]"
"CN(C)C(=N)N=C(N)N [metformin, reference compound]",can effectively reduce the blood glucose load,–,–,–,–,–,–,–
"Cc1cccc(Oc2c[nH]c(=O)[nH]c2=O)c1 [Compound 101, 5-(m-tolyloxy)pyrimidine-2,4(1H,3H)-dione]",effective in reducing blood glucose levels; also recorded: effectively controls glucose levels in vivo,62.0 ± 13.1 mg/dL,119.6 ± 36.0 mg/dL,156.4 ± 55.9 mg/dL,152.2 ± 33.9 mg/dL,107.8 ± 34.1 mg/dL,102.6 ± 39.9 mg/dL,8424.7 ± 1922.5 mg·min/dL

# — patent US8552184B2, “Compounds and methods for treating disorders related to glucose metabolism” (Melior Pharmaceuticals I, Inc., priority 2008, dated 2013)
